# Assay results as given in patent US20180044316A1, “POTENTIATORS OF BETA-LACTAM ANTIBIOTICS” (UNIVERSITY OF NOTRE DAME DU LAC, priority 2015, published 2018).
# Where “and” joins values, the source holds several entries; their conditions need not be identical. Equal values may be shown once. Read-outs that look alike come from different tables or passages of the source.
# Key:
# BlaR1 phosphorylation [1] = assay: BlaR1 phosphorylation by western blot in CBAP-induced NRS128 whole-cell extracts; type: cell-based, Staphylococcus aureus NRS128; conditions: NRS128 induced with 10 μg/mL CBAP, compound at 7 or 17 μg/mL
# Description: Next, we tested the effect of exposure of CBAP-induced NRS128 to this kinase inhibitor. Cultures were induced with 10 μg/mL CBAP in the presence of 0, 7, or 17 μg/mL of compound 1. Whole-cell extracts of these bacteria were analyzed for BlaR1 phosphorylation by western blot using anti-Phos-Ser and anti-Phos-Tyr antibodies. Compound 1 inhibited both the phosphotyrosine and phosphoserine kinase activities by as much as 70-90% (FIG. 4).
# Detection of BlaR1 phosphorylation in presence of antibiotic. As we had disclosed in a recent publication on fragmentation of BlaR1 during the course of induction, we detect a cleavage at position S283-F284 of BlaR1 (Llarrull et al., J. Biol. Chem. 2011, 286, 38148-38158). This proteolytic cleavage cuts the BlaR1 protein into two fragments of roughly equal sizes (approx. 30-31 kDa). […]
# Extracts were prepared as previously described in buffer containing 50 mM Tris pH 7.5, 150 mM NaCl, 2 mM EDTA, 0.55% SDS, 2.5% Triton X-100, and Halt Protease and Phosphatase Inhibitor Cocktail (Thermo Scientific, Waltham, Mass., U.S.A.) and analyzed by Western blot using antibodies against phosphothreonine, phosphotyrosine, and phosphoserine. A ˜30 kDa protein band was detected by the phosphotyrosine and phosphoserine specific antibodies only in cell extracts of S. aureus cells grown with CBAP (FIG. 2). This band was not detected by the phosphothreonine antibody. […]
# S. aureus MRSA252 = assay: MIC determination (broth microdilution), oxacillin with or without kinase inhibitor; type: cell-based, Staphylococcus aureus; conditions: for MIC: Staphylococcus aureus; for MIC of oxacillin in the presence of compound: compound at 7 μg/mL
# Description: A protein-kinase inhibitor library of 80 known compounds was tested in a 96-well format against strain MRSA252 for the screening. We first determined MICs (broth microdilution method) (CLSI, Performance Standards for Antimicrobial Susceptibility Testing; Twenty-Second Informational Supplement. CLSI document M100-S22. Clinical and Laboratory Standards Institute; Wayne, Pa.) for all the inhibitors in the library, in case some of them might have antibacterial properties of their own, which could complicate the analysis.
# This rapid initial screening identified compound 1 as meeting the selection criteria of lowering the MIC for oxacillin, which was followed up by the actual evaluation of the MIC of oxacillin against S. aureus MRSA252 in the presence of the inhibitor.
# (§1) Minimal-inhibitory concentration (MIC) determination. Determination of MICs was done by the microdilution method cation-adjusted in Mueller-Hinton II Broth (CAMHB II, BBL) in accordance with the protocols of CLSI (Performance Standards for Antimicrobial Susceptibility Testing; Twenty-Second Informational Supplement. CLSI document M100-S22. Clinical and Laboratory Standards Institute Wayne, Pa.). A final bacterial inoculum of 5×10^5 CFU/mL was used, and the results were recorded after incubation for 16-20 h at 37° C.
# BlaR1 phosphorylation [2] = assay: BlaR1 phosphorylation by western blot in CBAP-induced NRS70 whole-cell extracts; type: cell-based, Staphylococcus aureus NRS70; conditions: for tyrosine phosphorylation of the BlaR1 fragment: NRS70, CBAP-induced, 7 μg/mL inhibitor; for serine phosphorylation of BlaR1 fragment: NRS70, even at 17 μg/mL
# Description: We then evaluated the ability of compounds 10, 11 or 12 to inhibit tyrosine phosphorylation of BlaR1 in NRS70 extracts. The bacteria were grown under the conditions described earlier for NRS128, induced by CBAP in the absence and presence of 0.7 μg/mL or 7 μg/mL compounds 10, 11 or 12, and analyzed by western blot using antibody against phosphotyrosine (FIG. 5a). […] However, serine phosphorylation was not inhibited by any of these compounds, even at 17 μg/mL (FIG. 6), in contrast to the case of 1, which had inhibited both. This provides evidence for the critical nature of tyrosine phosphorylation for regulation of BlaR1.
# To overcome this, we subsequently cleared all S. aureus extracts of Protein A and other immunoglobulin-binding proteins by incubation with IgG Sepharose (GE Healthcare, Little Chalfont, UK) for 1-2 h at room temperature with gentle agitation. After a brief centrifugation, the total protein in the supernatant was quantified by a BCA assay and 20 μg was loaded onto an 11% SDS-PAGE gel. Following electrophoresis, samples were transferred to a nitrocellulose membrane in a 10 mM CAPS (pH 11) buffer containing 10% methanol. Membranes were blocked in 3% BSA for phosphoserine blots or Blotto (3% BSA, 3% milk in TBS) for phosphotyrosine blots. HRP-conjugated primary antibody was applied in either 1% BSA/TBST (phosphoserine, Abcam, Cambridge, UK) or 1.1% milk/TBST (phosphotyrosine, 4G10 Platinum, EMD Millipore, Billerica, Mass., U.S.A.). Phosphoserine blots were developed with Pierce ECL Substrate (Thermo Scientific) and phosphotyrosine blots were developed with SuperSignal West Dura Extended Duration Substrate (Thermo Scientific), then exposed to X-ray film for an appropriate amount of time (30-600 s).
# Stk1 protein kinase [3] = target: T1, Stk1 protein kinase (Staphylococcus aureus, UniProt A0ABF7PGK0); assay: In vitro phosphorylation assay: phosphorylation of myelin basic protein (MBP) by Stk1; type: biochemical, S. aureus strain NRS70; conditions: IC50, inhibition of MBP phosphorylation by Stk1, [γ-32P]-ATP 20 μM
# Description: (§2) Cloning, expression, and purification of S. aureus Stk1 protein kinase. The stk1 gene for Stk1 protein kinase (SA1063 in S. aureus NRS70) is conserved in all known genomic sequences for S. aureus (Beltramini et al., Infect. Immun. 77, 1406-1416 (2009); Débarbouillé et al., J. Bacteriol. 191, 4070-4081 (2009); Didier et al., FEMS Microbiol. Lett. 306, 30-36 (2010)). We PCR-amplified the DNA fragment corresponding to the entire coding sequences of stk1 from S. aureus strain NRS70 chromosomal DNA with primers STK1fw (5′-[…] […]-3′) and STK1rev (5′-[…] […]-3′). The amplified DNA fragments were then digested with NdeI and XhoI restriction enzymes and cloned into pET28a. After verification of the inserts by DNA sequencing on both strands, the resulting plasmid (termed pETstk1) was introduced into E. coli strain BL21(DE3) for protein expression.
# (§3) For purification of Stk1, 5 mL of an overnight culture of BL21(DE3) harboring pETstk1 was inoculated into 500 mL fresh LB medium and grown at 37° C. until the OD600 reached 0.8. Isopropyl β-D-1-thiogalactopyranoside (IPTG) was then added to the culture to a final concentration of 0.5 mM and the culture was shaken at 15° C. overnight. The culture was then centrifuged at 5000 rpm at 4° C. for 15 min. The pellet was resuspended in 20 mL of lysis buffer (25 mM HEPES, 500 mM NaCl, 10 mM imidazole, pH 7.4). After sonication, the lysate was centrifuged at 18,000 g at 4° C. for 45 min. The resulting supernatant containing the His-tagged Stk1 was loaded onto a 5-mL Hitrap Chelating column (GE Healthcare), followed by elution with a linear gradient of imidazole (0-500 mM) in lysis buffer. The fractions containing Stk1 were pooled, concentrated and the buffer was exchanged to 25 mM HEPES, pH 7.4. The resulting sample was then subjected to Q anion-exchange chromatography and eluted with a linear gradient of NaCl (0-1 M). Protein purity was ascertained by sodium dodecyl sulfate polyacrylamide gel electrophoresis (SDS-PAGE) (FIG. 7).
# (§4) In vitro phosphorylation assay. […] Band intensities were quantified using GelQuant software. […]
# MRSA strain NRS123 = assay: MIC determination (broth microdilution), oxacillin with or without kinase inhibitor; type: cell-based, Staphylococcus aureus; conditions: for MIC of oxacillin in the presence of compound: compound at 7 μg/mL
# Description: (§5) We evaluated the new imidazole analogues for their ability to lower the MIC of oxacillin against MRSA in the same manner as for the kinase inhibitor library. In addition to MRSA252, we expanded our investigation to include strains NRS123 and NRS70, both of which have 95% sequence identities between their BlaR1 proteins and that of NRS128, with the bla operon encoded on plasmids (pMW2 and pN315, respectively).
# as §1
# MRSA strain NRS70 = assay: as above; type: cell-based, Staphylococcus aureus; conditions: for MIC of oxacillin in the presence of compound: compound at 7 μg/mL
# Description: as §5, §1
# Stk1 protein kinase [4] = target: T1, Stk1 protein kinase; assay: In vitro phosphorylation assay: Stk1 autophosphorylation; type: biochemical, S. aureus strain NRS70; conditions: IC50, inhibition of Stk1 autophosphorylation, [γ-32P]-ATP 20 μM
# Description: as §2, §3, §4
# [5] = Staphylococcus aureus, no inhibitor
"MIC (S. aureus MRSA252; without oxacillin, read-out: MIC of the kinase inhibitor alone) [µg/mL]",decrease in the MIC of oxacillin (S. aureus MRSA252; inhibitor at 7 μg/mL),Compound,inhibition of phosphoserine kinase activity (BlaR1 phosphorylation) (BlaR1 phosphorylation [1]; anti-Phos-Ser western blot),inhibition of phosphotyrosine kinase activity (BlaR1 phosphorylation) (BlaR1 phosphorylation [1]; anti-Phos-Tyr western blot),tyrosine phosphorylation of the BlaR1 fragment (BlaR1 phosphorylation [2]),serine phosphorylation of BlaR1 fragment (BlaR1 phosphorylation [2]),IC50 (Stk1 protein kinase [3]),MIC of oxacillin in the presence of compound (MRSA strain NRS123) [µg/mL],MIC of oxacillin in the presence of compound (MRSA strain NRS70) [µg/mL],IC50 (Stk1 protein kinase [4]),MIC of oxacillin in the presence of compound (S. aureus MRSA252) [µg/mL],MIC (MRSA strain NRS123; [5]) [µg/mL],MIC (MRSA strain NRS70; [5]) [µg/mL],"MIC (S. aureus MRSA252; no inhibitor, read-out: MIC of oxacillin) [µg/mL]"
≥ 64,four-fold decrease,"Oc1ccc(-c2nc(-c3ccc(F)cc3)c(-c3ccncc3)[nH]2)cc1 [Compound 1, reference compound]",70-90%,70-90%,,,,,,,,,,
,,"CC(C)(C)c1ccc(-c2nc(-c3ccc(F)cc3)c(-c3ccncc3)[nH]2)cc1 [Compound 10, 2-(4-tert-Butylphenyl)-4-(4-fluorophenyl)-5-(4-pyridyl)imidazole]",,,almost completely abolished,not inhibited,5.65 µM and 6.1 µM,8,4,8.35 µM and 8.8 µM,2,,,
,,"CCc1ccc(-c2nc(-c3ccc(F)cc3)c(-c3ccncc3)[nH]2)cc1 [Compound 11, 2-(4-Ethylphenyl)-4-(4-fluorophenyl)-5-(4-pyridyl)imidazole]",,,almost completely abolished,not inhibited,11.6 µM and 12.2 µM and 12 µM,4,0.5,14.6 µM and 14.9 µM and 14.7 µM,16,,,
,,"CC(C)Cc1ccc(-c2nc(-c3ccc(F)cc3)c(-c3ccncc3)[nH]2)cc1 [Compound 12, 2-(4-iso-Butylphenyl)-4-(4-fluorophenyl)-5-(4-pyridyl)imidazole]",,,almost completely abolished,not inhibited,16.2 µM and 15.3 µM,4,0.5,16.2 µM and 17 µM and 18 µM,4,,,
,,"Cc1onc(-c2ccccc2)c1C(=O)N[C@@H]1C(=O)N2[C@@H]1SC(C)(C)[C@@H]2C(=O)O [oxacillin, reference compound]",,,,,,,,,,16,32,256
